# Literature values, collected in US6358541B1, “Topical preparation for the treatment of hair loss” (priority 2000, dated 2002).
# Assays:
# [1] = 0.1 wt. % adapalene gel, versus petroleum jelly control
# comedones = details: topical
# [2] = topical
# [3] = vapor; OSHA list 1990
smiles,measurement,setting,value
"COc1ccc(-c2ccc3cc(C(=O)O)ccc3c2)cc1C12CC3CC(CC(C3)C1)C2 [adapalene, Adapalene]",irritative potential,[1],low irritative potential only slightly greater than a petroleum jelly control
same,comedolytic activity,comedones,significant comedolytic activity
"O=C(O)CCCCCCCC(=O)O [Azeleic acid, 1,7 heptanedicarboxylic acid]",irritation relative to tretinoin (retinoic acid),[2],less irritation than tretinoin
"CC1=C(/C=C/C(C)=C/C=C/C(C)=C/C=O)C(C)(C)CCC1 [retinaldehyde, Retinaldehyde]",irritation relative to tretinoin (retinoic acid),[2],significantly less irritating than retinoic acid
[O][Cl+][O-] [chlorine dioxide],Permissible Exposure Level (PEL),[3],0.1 ppm
